In data set [1] the target is T1, E1-STS (Homo sapiens, UniProt P08842).
T1 construct: from tissue; host or cells: placental microsomes (100,000 g fraction)
T1 sequence (P08842 22-583): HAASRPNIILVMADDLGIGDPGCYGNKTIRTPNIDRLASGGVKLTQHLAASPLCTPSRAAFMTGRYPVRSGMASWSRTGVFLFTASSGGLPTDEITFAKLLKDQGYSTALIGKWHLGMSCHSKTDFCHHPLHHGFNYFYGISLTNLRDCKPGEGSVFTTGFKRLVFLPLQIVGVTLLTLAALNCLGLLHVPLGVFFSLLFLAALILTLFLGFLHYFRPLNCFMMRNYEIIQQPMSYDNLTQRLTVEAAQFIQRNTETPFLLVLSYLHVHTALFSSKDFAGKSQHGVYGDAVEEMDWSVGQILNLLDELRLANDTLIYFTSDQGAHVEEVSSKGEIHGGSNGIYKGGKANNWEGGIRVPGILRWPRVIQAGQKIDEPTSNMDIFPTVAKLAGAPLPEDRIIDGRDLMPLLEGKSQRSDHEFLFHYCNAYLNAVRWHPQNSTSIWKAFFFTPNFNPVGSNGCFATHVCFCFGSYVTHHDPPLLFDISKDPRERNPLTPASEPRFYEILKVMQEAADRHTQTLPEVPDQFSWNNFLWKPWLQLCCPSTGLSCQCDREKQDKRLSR
The experiment in a line: Hydrolysis of coumarin sulphate (12) by placental microsomes, TLC. The format is biochemical. To be noted: 100 μg incubated for 1 hour with placental microsomes.

Data set [2] in a line: Chemical and thermal stability of compound 12. The format is physicochemical. To be noted: sodium hydroxide in methanol. An excerpt: Two equivalents of sodium hydroxide are required for consuming excess sulphur trioxide-pyridine complex to yield the neutral sodium sulphate. Insufficient amount of sodium hydroxide will therefore lead to the formation of sodium hydrogen sulphate which is acidic.

Data set [3] relates to uterine weight. The experiment in a line: Oestrogenic activity: uterine weight in ovariectomised rats (compound 14). Type of data set: in vivo, rat. The following applies: 1 mg/kg subcutaneously for 5 days.
Data set [4] addresses T2, E1-STS (Rattus norvegicus, UniProt P15589).
T2 construct: The E1-STS activity in the uteri obtained from these animals; from tissue; host or cells: rat uterus
T2 sequence (P15589 20-577): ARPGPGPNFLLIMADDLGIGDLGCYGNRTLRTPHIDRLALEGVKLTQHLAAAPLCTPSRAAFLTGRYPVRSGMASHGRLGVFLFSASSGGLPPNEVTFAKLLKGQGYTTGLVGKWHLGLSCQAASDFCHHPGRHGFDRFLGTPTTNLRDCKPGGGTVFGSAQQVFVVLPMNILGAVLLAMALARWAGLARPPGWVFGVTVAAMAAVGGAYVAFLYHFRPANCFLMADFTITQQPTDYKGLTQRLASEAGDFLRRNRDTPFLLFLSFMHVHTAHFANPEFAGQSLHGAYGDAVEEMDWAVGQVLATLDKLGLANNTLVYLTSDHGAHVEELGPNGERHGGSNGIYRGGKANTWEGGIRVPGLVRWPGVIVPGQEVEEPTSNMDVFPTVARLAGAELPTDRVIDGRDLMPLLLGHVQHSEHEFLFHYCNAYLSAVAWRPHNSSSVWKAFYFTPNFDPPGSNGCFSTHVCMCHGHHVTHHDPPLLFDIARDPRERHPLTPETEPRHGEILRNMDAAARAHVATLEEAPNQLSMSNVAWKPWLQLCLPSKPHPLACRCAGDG
The experiment in a line: E1-STS activity in uteri of treated ovariectomised rats. The format is in vivo. To be noted: 1 mg/kg subcutaneously for 5 days, compared with untreated animals.

For data set [5], the target named is T3, sulphatase (Rattus norvegicus, UniProt P15589).
T3 construct: from tissue; host or cells: rat white blood cells
T3 sequence (P15589 20-577): T2 sequence (P15589 20-577)
Description: Sulphatase activity in white blood cells of rats after oral dosing. The format is in vivo. The following applies: for % Inhibition MD / % Inhibition SD: white blood cells; for % Inhibition SD: single dose. The protocol:
Inhibition of sulphatase activity was assessed in white blood cells (wbcs) that were collected after a SD or MD. Sulphatase activity was assayed using labelled oestrone sulphate as the substrate and measuring the release of oestrone.

For data set [6], the target named is T4, oestrone sulphatase (Rattus norvegicus, UniProt P15589).
T4 construct: samples of liver tissue were obtained; from tissue; host or cells: rat liver
T4 sequence (P15589 20-577): T2 sequence (P15589 20-577)
Description: Inhibition of oestrone sulphatase activity in vivo in rat liver (NOMATE). The following applies: 0.1 mg/Kg/day for five days orally; rat liver tissue; compared with untreated controls. The protocol:
(§1) Using 17-deoxy oestrone-3-O-sulphamate (NOMATE, FIG. 5 Formula IV where X=—OSO2NH2, Y=—CH2— and R1 and R2=H, and FIG. 13) as a representative example, the ability of this compound to inhibit oestrone sulphatase activity in vivo was examined in rats. The oestrogenicity of this compound was examined in ovariectomised rats. In this model compounds which are oestrogenic stimulate uterine growth.
NOMATE (0.1 mg/Kg/day for five days) was administered orally to rats with another group of animals receiving vehicle only (propylene glycol). At the end of the study samples of liver tissue were obtained and oestrone sulphatase activity assayed using ^3H oestrone sulphate as the substrate as previously described.

Data set [7] concerns uterine growth. The experiment in a line: In vivo oestrogenicity: uterine weight in ovariectomised rats (NOMATE). Details: species or system rat. The following applies: 0.1 mg/Kg/day for five days orally. Here is the method: as §1
NOMATE (0.1 mg/Kg/day for five days) was administered orally to rats with another group of animals receiving vehicle only (propylene glycol). At the end of the study uteri were obtained and weighed with the results being expressed as uterine weight/whole body weight×100.

Data set [8] addresses T5, oestrone sulphatase (Homo sapiens, UniProt P08842).
T5 sequence (P08842 22-583): T1 sequence (P08842 22-583)

The target of data set [9] is T6, oestrone sulphatase (E1-STS) (Homo sapiens, UniProt P08842).
T6 sequence (P08842 22-583): T1 sequence (P08842 22-583)
The format is cell-based. The following applies: intact MCF-7 cells, 20 h.

Where two headings read alike, the source gives them in different places.

As to `Cc1cc(=O)oc2cc(OS(=O)(=O)[O-])ccc12.[Na+]` [Compound 12, 7-(Sulphoxy)4-Methylcoumarin. sodium salt, reference compound], the “substrate for E1-STS (in words)” value in data set [1] is “is indeed a substrate for the sulphatase”. The “stability in bases and acidic conditions (in words)” value in data set [2] is recorded as “stable in bases such as sodium hydroxide in methanol but not in acidic conditions”.

With `Cc1cc(=O)oc2cc(OS(N)(=O)=O)ccc12` [compound 14], the “uterine weight (oestrogenic activity, in words)” value in data set [3] is “did not result in any significant increase in the uterine weight”. The “inhibition of E1-STS activity in the uteri” value in data set [4] is 89.4%. Further, the “% Inhibition MD” value in data set [5] (0.1 mg/kg oral daily for seven days) stood at 65%; in data set [5] (1.0 mg/kg oral daily for seven days) it was 85%; in [5] (10.0 mg/kg oral daily for seven days), 89%. In addition, the “% Inhibition SD” value in [5] (0.1 mg/kg oral) stood at 72%; in [5] (1.0 mg/kg oral), 85%; in data set [5] (10.0 mg/kg oral), 96%. Besides, the “oral activity in rats (in words)” value in data set [5] (oral, rats) is on record as “potent oral activity”.

Take `C[C@@]12CCC[C@H]1[C@@H]1CCc3cc(OS(N)(=O)=O)ccc3[C@H]1CC2` [NOMATE, 17-deoxy oestrone-3-O-sulphamate]: in data set [6], the “inhibition of oestrone sulphatase activity in vivo” value was found to be 98%. Also, the “effect on uterine growth (oestrogenicity, in words)” value in data set [7] is “no significant effect on uterine growth”. The “% Inhibition (Mean) Placental Microsomes” value in data set [8] (concentration tested 0.1 mM (so in the source)) stood at 97.2%; in data set [8] (concentration tested 1 mM (so in the source)), 99.5%; in data set [8] (concentration tested 10 mM (so in the source)), 99.5%; in [8] (concentration tested 25 mM (so in the source)), 99.7%.

Regarding `NS(=O)(=O)Oc1ccc2c(C(F)(F)F)cc(=O)oc2c1` [compound 16, 4-(trifluoromethylcoumarin)-7-O-sulphamate], the “inhibition of oestrone sulphatase at 10 μM” value in data set [9] is reported as 71.5%.
